The text below walks through data of US10233180B2, “Substituted nitrogen-containing heterocyclic derivatives, pharmaceutical compositions comprising the same and applications of antitumor thereof” (ZHEJIANG UNIVERSITY, priority 2014, dated 2019).

The test system of test [1] is Human ovarian cancer cell strain OVCAR-8. The experiment in a line: MTT assay, inhibition of tumor cell growth in vitro, 72 h. The class given is cell-based. The conditions noted are these: OVCAR-8, MTT, read-out: Antitumor proliferative activities of tumor cell (IC50, μM) OVCAR-8. The procedure:
(§1) First, inhibitory activity on tumor proliferation in vitro is determined and the structure activity relationship is preliminarily studied, in which different solid tumor cell strains are selected for determining the antitumor activities in vitro of the synthesized compounds.
(§2) Cell strains: Human ovarian cancer cell strain (OVCAR8), colon adenocarcinoma cell strain (HCT-116)
Medium: OVCAR8: RPMI 1640+Fetal Bovine Serum
(§3) Preparing method of medicines: Dissolving the medicine in DMSO to make a 50 mM stock solution, and diluting it according to a certain ratio to obtain 5 different concentrations.
(§4) Two selected tumor cells OVCAR8 and HCT-116 are incubated at 37° C. in a 5% CO2 incubator, which are subcultured when cells grow up to a density of 70˜90% (adherent cells are subcultured after digesting by Duck's EDTA) for later experiments.
(§5) Compounds are dissolved and diluted by dimethyl sulfoxide (DMSO), and tumor cells OVCAR8 and HCT-116 are seeded in a 96-well plate at a density of 4000 cells/200 μl/well, 1 μl of the compounds are added to each well with the final concentration of 50 μM, 10 μM, 2 μM, 0.4 μM and 0.08 μM, which is incubated for 72 h at 37° C. in a 5% CO2 incubator with DMSO (1%) as blank control.
(§6) The calculating formula of cell inhibitory rate is: cell inhibitory rate %=(the OD value of the control group−the OD value of the medication group)/the OD value of the control group×100%, the half maximal inhibitory concentration (IC50) is obtained by Bliss method.
In general terms: Tetrazolium assays rely on reduction of a dye to a coloured formazan, in cell work by metabolically active cells.

For test [2], the target named is T1, Akt1 (Homo sapiens, UniProt P31749).
T1 construct: purchased 32-021
The experiment in a line: AKT1/PKBα KinEASE FP Fluorescein Green Assay (fluorescence polarization kinase kit). In kind it is biochemical. The conditions noted are these: 1 h reaction, read-out: Inhibitory activities against Akt1 (IC50). On the procedure:
Second, method for determining the inhibitory activities of substituted nitrogen-containing heterocyclic derivatives in the present invention against Akt1 enzyme:
The inhibitory activities of compounds against AKT1/PKBα are determined by using AKT1/PKBα KinEASE™ FP Fluorescein Green Assay (Green fluorescence detection system of Kinase).
Principle adopted by the fluorescence polarization detection of protein kinase B is a competitive reaction: the phosphorylated tracers labeled with fluorescence will compete with unlabeled phosphorylated products produced by reacting with protein kinase B to combine anti-serine antibodies. […] However, in the reaction mixture containing phosphorylated products, fewer tracers will combine with antibodies (fluorescent tracers are replaced from the antibodies), and signals sent our occur depolarizing. Therefore, the change of polarization is directly related to the activity of protein kinase B in the reaction.
Each of 0.25 μl of compounds with a concentration of 50 μM and the positive control are added to a 384-well plate at room temperature, and each sample is provided with three parallel wells, and then 10 μl of STK Substrate 3 Working Solution, 5 μl of AKT1/PKBα Working Solution, 10 μl of ATP Working Solution are added to each sample respectively, the mixtures are slightly vibrated and shaked for a few minutes. Reaction is carried out just after the adding 10 μl of ATP Working Solution, from this time, reacting for 1 h. After 1 h, 5 μl of STK Stop Mix and 5 μl of STK Antibody Mix are added to each sample respectively to stop the reaction. The samples are maintained for 4 h at room temperature after adding is completed, the polarization values of samples are determined by fluorescence polarization of Microplate Reader (Detection of the signals is valid within 24 h), the inhibitory rate of compounds against the enzyme is calculated by polarization value, and thereby IC50 is calculated.
Experiment is set up four control groups at the same time, which are Buffer Control Wells, Tracer Control Wells, No Enzyme Wells and blank control of dimethyl sulfoxide, respectively. Thus obtained data are used to calculate the inhibitory rate (the preparation methods of above various solution required for determining the activities of compounds against enzyme refer to the specification of the kit of AKT1/PKBα KinEASE™ FP Fluorescein Green Assay Catalog #32-021).
In general terms: Fluorescence polarisation rises when a labelled molecule tumbles more slowly, as on binding a larger partner.

The subject of test [3] is human colon cancer cell strain HCT-116. The experiment in a line: MTT assay, inhibition of tumor cell growth in vitro, 72 h. The class given is cell-based. The conditions noted are these: HCT-116, MTT, read-out: Antitumor proliferative activities of tumor cell (IC50, μM) HCT-116 (converted). The procedure: as §1, §2
HCT-116: RPMI 1640+Fetal Bovine Serum
as §3, §4, §5, §6

As usually defined, the IC50 is the midpoint of a concentration-inhibition curve.

Read-outs that look alike come from different tables or passages of the source.

T1 sequence (P31749 whole entry): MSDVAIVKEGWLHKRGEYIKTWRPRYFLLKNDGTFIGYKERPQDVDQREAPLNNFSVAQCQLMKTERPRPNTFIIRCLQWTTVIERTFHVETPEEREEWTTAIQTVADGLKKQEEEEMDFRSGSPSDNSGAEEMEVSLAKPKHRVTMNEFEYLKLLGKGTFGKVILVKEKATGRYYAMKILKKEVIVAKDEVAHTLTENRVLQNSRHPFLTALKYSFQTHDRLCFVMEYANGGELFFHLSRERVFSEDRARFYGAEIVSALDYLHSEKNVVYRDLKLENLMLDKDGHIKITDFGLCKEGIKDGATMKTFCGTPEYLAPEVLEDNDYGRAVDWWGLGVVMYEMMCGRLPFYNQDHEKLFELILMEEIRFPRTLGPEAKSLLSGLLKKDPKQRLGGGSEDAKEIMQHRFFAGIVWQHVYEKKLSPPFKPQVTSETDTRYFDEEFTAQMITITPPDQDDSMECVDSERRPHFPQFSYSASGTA

`Cn1ncc(Cl)c1-c1coc(C(=O)N[C@H]2CNC[C@@H]2c2ccc(F)c(F)c2)c1` (racemic) [Compound 66]: the IC50 in test [1] (Homo sapiens) is 3.48 µM; in test [2] it was 345 nM; in test [3] (Homo sapiens), 3.22 µM.
Taken in the same sequence, the figures for `CC1CCC([C@H]2CCNC[C@@H]2NC(=O)c2ncc(-c3c(Cl)cnn3C)c(Cl)n2)CC1` (stereo partly drawn) [Compound 55, 4-chloro-5-(4-chloro-1-methyl-1H-pyrazol-5-yl)-N-(3,4-trans-4-(4-methylcyclohexane)piperidin-3-yl)pyrimidine-2-formamide] were 5.79 µM, 48 nM and 10.8 µM.
Consider `Cc1cc(C(=O)N[C@H]2CNCC[C@@H]2C2CCCC(Cl)C2)ncc1-c1c(Cl)cnn1C` (stereo partly drawn) [Compound 56, 5-(4-chloro-1-methyl-1H-pyrazol-5-yl)-N-(3,4-trans-4-(3-chlorocyclohexane)piperidin-3-yl)-4-methylpyridinyl-2-formamide], for which the IC50 in test [1] (Homo sapiens) is 9.53 µM; in test [2], 362 nM; in test [3] (Homo sapiens) it was 4.51 µM.
The like results for `Cc1nc(C(=O)N[C@H]2CNCC[C@@H]2c2ccncc2)ccc1-c1c(Br)cnn1C` (racemic) [Compound 58, 6-methyl-5-(4-bromo-1-methyl-1H-pyrazol-5-yl)-N-(3,4-trans-4-(pyridinyl-4-yl)piperidin-3-yl)pyridinyl-2-formamide] were, in that order, 3.68 µM, 52 nM and 15.8 µM.
As for `Cn1ncc(Cl)c1-c1cc(C(=O)N[C@@H]2CNCC[C@H]2c2ccc(C(F)(F)F)cc2)oc1Cl` [Compound 44, 5-chloro-4-(4-chloro-1-methyl-1H-pyrazol-5-yl)-N-((3S,4S)-4-(4-trifluoromethylphenyl)piperidin-3-yl)furan-2-formamide], the values for the IC50 in test [1] (Homo sapiens), in test [2] and in test [3] (Homo sapiens) were 1.88 µM, 672 nM and 18.3 µM, respectively.
Taken in the same sequence, the figures for `Cn1ncc(Cl)c1-c1ccc(C(=O)N[C@@H]2CNCC[C@H]2c2ccc(F)c(F)c2)cc1Cl` [Compound 78, 3-chloro-4-(4-chloro-1-methyl-1H-pyrazol-5-yl)-N-((3S,4S)-4-(3,4-difluorophenyl)piperidin-3-yl)benzamide] were 0.76 µM, 6 nM and 2.03 µM.
The like results for `Cn1ncc(C(=O)O)c1-c1ccc(C(=O)N[C@@H]2CNCC[C@H]2c2cccc(F)c2)s1` [Compound 142] were, in that order, 1.62 µM, 2 nM and 3.09 µM.
For `CCC[C@H]1CNC[C@@H](NC(=O)c2cc(-c3c(Cl)cnn3C)c(Cl)s2)[C@@H]1c1cccc(F)c1` [Compound 134, 5-chloro-4-(4-chloro-1-methyl-1H-pyrazol-5-yl)-N-((3S,4S,5R)-4-(3-fluorophenyl)-5-propylpiperidin-3-yl)thiophene-2-formamide], the IC50 in test [1] (Homo sapiens) is 0.53 µM; in test [2] it was 0.3 nM; in test [3] (Homo sapiens), 0.69 µM.
The like results for `Cn1ncc(Cl)c1-c1cc(C(=O)N[C@H]2CNCC[C@@H]2c2ccc(F)c(F)c2)oc1Cl` (racemic) [Compound 31, 5-chloro-4-(4-chloro-1-methyl-1H-pyrazol-5-yl)-N-(3,4-trans-4-(3,4-difluorophenyl)piperidin-3-yl)furan-2-formamide] were, in that order, 4.54 µM, 18 nM and 1.85 µM.
The like results for `Cn1ncc(Br)c1-c1csc(C(=O)N[C@H]2CNCC[C@@H]2c2ccc(F)c(F)c2)c1` (racemic) [Compound 38, 4-(4-bromo-1-methyl-1H-pyrazol-5-yl)-N-(3,4-trans-4-(3,4-difluorophenyl)piperidin-3-yl)thiophene-2-formamide] were, in that order, 4.69 µM, 409 nM and 1.94 µM.
Taken in the same sequence, the figures for `Cc1cc(C(=O)N[C@@H]2CNCC[C@H]2c2ccc(Cl)c(C(F)(F)F)c2)ccc1-c1c(Cl)cnn1C` [Compound 74, 4-(4-chloro-1-methyl-1H-pyrazol-5-yl)-N-((3S,4S)-4-(4-chloro-3-(trifluoromethyl)phenyl)piperidin-3-yl)-3-methylbenzamide] were 1.3 µM, 14 nM and 0.42 µM.
Consider `Cc1cnn(C)c1-c1cnc(C(=O)N[C@H]2CNC[C@@H]2c2ccc(C(F)(F)F)cc2)cc1F` (racemic) [Compound 71, 4-fluoro-5-(1,4-dimethyl-1H-pyrazol-5-yl)-N-(3,4-trans-4-(4-trifluoromethylphenyl)pyrrolidin-3-yl)pyridinyl-2-formamide], for which the values for the IC50 in test [1] (Homo sapiens), in test [2] and in test [3] (Homo sapiens) were 2.61 µM, 116 nM and 11.1 µM, respectively.
The like results for `CC(Cl)c1ccc([C@H]2CCNC[C@@H]2NC(=O)c2cc(Cl)c(-c3ncnn3C)s2)cc1` (stereo partly drawn) [Compound 8, 4-chloro-5-(1-methyl-1H-1,2,4-triazol-5-yl)-N-(3,4-trans-4-(4-(1-chloroethyl)phenyl)piperidin-3-yl)thiophene-2-formamide] were, in that order, 9.01 µM, 82 nM and 3.26 µM.
Taken in the same sequence, the figures for `CCC[C@H]1CNC[C@@H](NC(=O)c2ccc(-c3c(Cl)cnn3C)s2)[C@@H]1c1cccc(F)c1` [Compound 151, 5-(4-chloro-1-methyl-1H-pyrazol-5-yl)-N-((3S, 4S, 5R)-4-(3-fluorophenyl)-5-propylpiperidin-3-yl)thiophene-2-formamide] were 1.52 µM, 1 nM and 2.5 µM.
The like results for `Cc1cnn(C)c1-c1cnc(C(=O)N[C@H]2CNCC[C@@H]2c2ccc(F)c(F)c2)cc1F` [Compound 61, 4-fluoro-5-(1,4-dimethyl-1H-pyrazol-5-yl)-N-((3R,4R)-4-(3,4-difluorophenyl)piperidin-3-yl)pyridinyl-2-formamide] were, in that order, 8.44 µM, 188 nM and 3.85 µM.
Consider `Cn1ncc(Cl)c1-c1ccc(C(=O)N[C@@H]2CNCC[C@H]2c2ccc(F)c(F)c2)c(-c2csc(Cl)c2)c1` [Compound 90, 4-(4-chloro-1-methyl-1H-pyrazol-5-yl)-2-(5-chlorothiophene-3-yl)-N-((3S, 4S)-4-(3,4-difluorophenyl)piperidin-3-yl)benzamide], for which the values for the IC50 in test [1] (Homo sapiens), in test [2] and in test [3] (Homo sapiens) were 1.83 µM, 14 nM and 0.69 µM, respectively.
With `Cn1ncc(Cl)c1-c1cc(C(=O)N[C@@H]2CNC(CCN3CCCC3)C[C@H]2c2ccc(Cl)c(Cl)c2)oc1Cl` (stereo partly drawn) [Compound 110, 5-chloro-4-(4-chloro-1-methyl-1H-pyrazol-5-yl)-N-((3S,4S)-4-(3,4-dichlorophenyl)-6-(2-(pyrrolidin-1-yl)ethyl)piperidin-3-yl)furan-2-formamide], the IC50 was 1.21 µM in test [1] (Homo sapiens), 11 nM in test [2] and 0.89 µM in test [3] (Homo sapiens).
The like results for `Cn1ncc(Cl)c1-c1ccc(C(=O)N[C@@H]2CNCC[C@H]2c2c[nH]c3ccccc23)cc1Cl` [Compound 89, N-((3S,4S)-4-(1H-indol-3-yl)piperidin-3-yl)-3-chloro-4-(4-chloro-1-methyl-1H-pyrazol-5-yl)benzamide] were, in that order, 5.69 µM, 11 nM and 1.02 µM.
Consider `NC1(C(=O)N[C@@H](CCO)c2ccc(Cl)cc2)CCN(c2nc[nH]c3nccc2-3)CC1` [AZD5363, reference compound], for which the figures for the IC50 in test [1] and in test [3] were 7.27 µM and 5.2 µM, respectively.
